Legend:
[1] = system: pentylenetetrazol (Metrazole) seizure threshold in mice; experiment: Timed intravenous Metrazol (PTZ) seizure threshold test in mice, i.p.; type: in vivo, mouse; details: mice
Text: A compound that is active in the MES test and prevents seizure spread, can lower seizure threshold at the same time. Such a compound would have proconvulsant activity while at the same time prevent generalized tonic seizures. […] The timed intravenous pentylenetetrazol (Metrazol) seizure threshold test in mice identifies those MES compounds with proconvulsant potential.
Mice were given the (+) and (-) enantiomers, compounds 1 and 2 in Table 1, intraperitoneally at the ED50 and TD50. At the time of maximal MES activity, an intravenous infusion of 0.5% heparinized solution of pentylenetetrazol (PT2) (0.34 ml/min) was started. The time to the appearance of the first myoclonic jerk (twitch) and the subsequent sustained clonic seizure (clonus) were the measured endpoints. Results were obtained for groups of ten treated and ten saline control mice and converted to the dose in mg/kg of PTZ necessary to produce the two endpoints.
Experiments were performed using three doses of 0, 36 and 149 mg/kg on each of 10 animals per dosage group. The time to "twitch" and the time to "clonus", the two components of the seizure elicited by the infusion of metrazol, were observed.

[2] = system: hippocampal kindled rats; experiment: Hippocampal kindled rat model, i.p.; type: in vivo; set-up: key to Seizure Score ± S.E.M.: Racine seizure class scale; class 5 = rearing and falling
Text: "Kindling" refers to the process whereby repeated administration of an initially subconvulsive electrical stimulus results in progressive intensification of epileptic discharge culminating in a generalized seizure. Kindling can be induced by electrical stimulation of many sites in the brain, especially in "limbic" areas, which include amygdala, hippocampus, and entorhinal cortex [Racine, R., Neurosurgery, 3, 234-252 (1978)]. Kindling is reliably produced by a one second train of 60 Hz square wave stimuli of one millisecond duration at current levels which initially produce only a slight afterdischarge (AD), but no behavioral response. Repeated stimulation, typically once daily, results in a progressive increase in AD amplitude, duration and complexity with subsequent spread to other brain areas culminating in a fully generalized motor seizure. [Racine, R. J. and Zaide, J., In "Mechanisms, the Continuing Evolution of the Limbic System Concept" (K. E. Livingston and O. Hornykiewicz, eds.), Plenum Press, pp. 457-493, 1978.
The development of kindling in the rat has been characterized by five (1 to 5) behavioral and electrographic "classes". The behavior in classes 1 (facial clonus) and 2 (head nodding) mimics that found in human complex partial seizures; the behavior in other classes would be consistent with limbic seizures evolving to generalized motor seizures. An animal is considered to be fully kindled once the enhanced sensitivity has developed, as evidenced by a class 5 seizure (rearing and falling).
The (+) AAP enantiomer, compound 1 in Table 1, was tested in the hippocampal kindled rat, by the i.p. route. […]
The (-) AAP enantiomer, compound 2 in Table 1, was also tested in the hippocampal kindled rat, by the i.p. route.

[3] = system: maximal electroshock seizure (MES) in rats; experiment: Maximal electroshock seizure (MES) test, rats, p.o.; type: in vivo, rat (Sprague-Dawley); details: rat, p.o., listed as (1) (-) Enantiomer
Text: The (+) AAP enantiomers obtained by optical resolution of racemic AAPs and the resulting highly orally effective anticonvulsant compositions of this invention are useful in the treatment of convulsive disorders. […] A series of (+) AAP enantiomers and (-) AAP enantiomers of this invention has been evaluated for anticonvulsant activity by the intraperitoneal (i.p.) and by the oral (p.o.) route using two standard seizure models in the mouse and in the rat, the maximal electroshock seizure (MES) test and the subcutaneous pentylenetetrazol (Metrazole) seizure threshold (scMet) test. […] The following Table 2 presents the results of these anticonvulsant tests with respect to several (+) and (-) AAP enantiomeric compounds derived from optical resolution of racemic AAPs of the present invention. This Table 2 identifies the specific compounds tested by their chemical name and provides the test model, the route of administration, the animal species used, and the anticonvulsant activity and toxicity in terms of ED50 and TD50 values, (the median effective and toxic dose respectively), when intraperitoneally administered to mice, and when orally administered to rats. The Maximal Electroshock Seizure Test (MES): Maximal electroshock seizures are elicited with a 60 Hz alternating current of 50 mA intensity in mice and about 150 mA intensity in rats (5-7 times that necessary to elicit minimal electroshock seizures), delivered for 0.2 sec via corneal electrodes. A drop of 0.9% saline is instilled in the eye prior to application of the electrodes in order to […]. Abolition of the hind limb tonic extension component of the seizure is defined as protection and results are expressed as number of animals protected/number of animals tested. The Subcutaneous Pentylenetetrazol (Metrazole) Seizure Threshold Test (scMet): A 0.5% solution of 85 mg/kg of pentylenetetrazol is administered subcutaneously in the posterior midline 30 minutes or 4 hours after drug administration to the animal. […] This species will be the subject of the complete anticonvulsant quantification test evaluation as described above, but after oral (gavage) administration of the candidate compound.

Which results are given for CC(Nc1ccc(Cl)cc1)c1ccncc1 (single isomer, unassigned; (-)) [Compound 2, (-) N-(4-Chlorophenyl)-1-(4-pyridyl)ethylamine]?
amount of PTZ required to produce the twitch and clonus and time to twitch and time to clonus (in words) [1]: only in modest amounts; Afterdischarge Duration (sec) ± S.E.M. ([2]; 100 mg/kg i.p., 15 min): 69.88 ± 8.29 s; Seizure Score ± S.E.M. ([2]; 100 mg/kg i.p., 15 min, Table 3 value * significantly different from control): 4.63 ± 0.38; Afterdischarge Duration (sec) ± S.E.M. ([2]; 100 mg/kg i.p., 45 min): 74.88 ± 10.31 s; Seizure Score ± S.E.M. ([2]; 100 mg/kg i.p., 45 min, Table 3 value * significantly different from control): 4.25 ± 0.49; Afterdischarge Duration (sec) ± S.E.M. ([2]; 100 mg/kg i.p., 75 min): 82.50 ± 6.11 s; Seizure Score ± S.E.M. ([2]; 100 mg/kg i.p., 75 min, Table 3 value * significantly different from control): 4.75 ± 0.16; Afterdischarge Duration (sec) ± S.E.M. ([2]; 100 mg/kg i.p., 105 min): 75.75 ± 11.71 s; Seizure Score ± S.E.M. ([2]; 100 mg/kg i.p., 105 min, Table 3 value * significantly different from control): 4.50 ± 0.50; Afterdischarge Duration (sec) ± S.E.M. ([2]; 100 mg/kg i.p., 135 min): 82.63 ± 5.04 s; Seizure Score ± S.E.M. ([2]; 100 mg/kg i.p., 135 min): 4.75 ± 0.16; Afterdischarge Duration (sec) ± S.E.M. ([2]; 100 mg/kg i.p., 165 min): 79.00 ± 12.92 s; Seizure Score ± S.E.M. ([2]; 100 mg/kg i.p., 165 min): 4.13 ± 0.61; # Protected/# Tested ([2]; 100 mg/kg i.p., 195 min): 2/8; Afterdischarge Duration (sec) ± S.E.M. ([2]; 100 mg/kg i.p., 195 min): 69.25 ± 11.15 s; Seizure Score ± S.E.M. ([2]; 100 mg/kg i.p., 195 min): 3.88 ± 0.67; Afterdischarge Duration (sec) ± S.E.M. ([2]; 100 mg/kg i.p., 225 min): 83.75 ± 5.17 s; Seizure Score ± S.E.M. ([2]; 100 mg/kg i.p., 225 min): 4.25 ± 0.16; Afterdischarge Duration (sec) ± S.E.M. ([2]; 100 mg/kg i.p., 255 min): 73.13 ± 11.97 s; Seizure Score ± S.E.M. ([2]; 100 mg/kg i.p., 255 min): 4.00 ± 0.50; Afterdischarge Duration (sec) ± S.E.M. ([2]; 100 mg/kg i.p., 285 min): 84.50 ± 6.76 s; Seizure Score ± S.E.M. ([2]; 100 mg/kg i.p., 285 min): 4.83 ± 0.17; activity in hippocampal kindled rat (in words) ([2]; i.p.): only moderate activity; ED50 ([3]; MES test): 25.8 mg/kg; P.I. (protective index, TD50/ED50) ([3]; MES): > 19.4
